The results in this text go back to US3933793A, “Therapeutically active 2-aminoalkylthio-3H-1.5-benzodiazepines and process for preparing them” (Recordati S.A. Chemical and Pharmaceutical Company, priority 1971, dated 1976).

Converted amounts (≈) assume the structure as drawn. Structures can show the parent of a compound that is named as a salt.

The subject of experiment [1] is Bacillus subtilis ATCC 9466. As to the kind of experiment: Antibacterial activity, minimum inhibitory concentration. As to conditions: ATCC9466, 18 h, read-out: minimum inhibitory concentration, B. subtilis.
Procedure: (§1) The antibacterial activity of some of the 3H-1,5-benzodiazepines having the general formula I was tested on the following microorganisms:
(§2) Escherichia coli 100, Bacillus subtilis ATCC 9466, Micrococcus pyogenes SG-511, grown in Difco nutritive gelatin; Streptococcus pyogenes A 88 grown in Difco "Brain heart infusion agar" gelatin with 5 percent difibrinated Guinea pig blood.
(§3) The results were read after 18 hours incubation at 35°-37°C.
In experiment [2] the test system is Streptococcus pyogenes A 88. Described as above. As to conditions: A88, 18 h, read-out: minimum inhibitory concentration, S. pyogenes.
Procedure: as §1, §2, §3
The test system of experiment [3] is influenza A virus (PR8 strain). The class given is in vivo. As to conditions: 0.5 MTD in 10 ml buffered saline with virus, 1 hour at 37°C.
The subject of a further experiment is Escherichia coli 100. The experiment in a line: Antibacterial activity, minimum inhibitory concentration. As to conditions: Escherichia coli, 100, 18 h, read-out: minimum inhibitory concentration, B. coli.
Experiment [4] concerns Micrococcus pyogenes SG-511. Described as above. As to conditions: Staphylococcus aureus, SG511, 18 h, read-out: minimum inhibitory concentration, M. pyogenes.
Procedure: as §1, §2, §3

Procedure for Escherichia coli 100: as §1, §2, §3

Regarding `c1ccc(Sc2ccc(C3=Nc4ccccc4N=C(SCCN4CCCC4)C3)cc2)cc1` [Compound 43, 2,beta,N-pyrrolidinoethylthio-4,p-phenylthiophenyl-3H-1,5-benzodiazepine], the MIC in experiment [1] and in experiment [2] was 1.25 µg/mL (≈ 2.73 µM) each time.
With `CN1CCN(CCSC2=Nc3ccccc3N=C(c3ccccc3)C2)CC1` [Compound 63], in experiment [3], the “APR8: difference between logarithms of EID95 of controls and of treated eggs” value (from here on “APR8: difference between logarithms”) worked out at 1.
On to `CCN(CC)CCSC1=Nc2ccccc2N=C(c2cccc(Cl)c2)C1` [Compound 21, 2,beta,N-diethylaminothylthio-4,m-chlorophenyl-3H-1,5-benzodiazepine^. HCl], for which the MIC in the experiment with Escherichia coli 100 stood at 80 µg/mL; in experiment [1], 20 µg/mL; in experiment [4] it was 40 µg/mL; in experiment [2] it was 40 µg/mL.
Take `c1ccc(C2=Nc3ccccc3N=C(SCCN3CCCCC3)C2)cc1` [Compound 59]: the MIC in the experiment with Escherichia coli 100 turned out to be 160 µg/mL (≈ 440 µM); in experiment [1], 80 µg/mL (≈ 220 µM); in experiment [4], 80 µg/mL (≈ 220 µM).
In the case of `CC[N+](C)(CC)CCSC1=Nc2ccccc2N=C(c2ccc(SC(C)C)cc2)C1` [Compound 80], the MIC in the experiment with Escherichia coli 100 amounted to 40 µg/mL; in experiment [1] it was 5 µg/mL; in experiment [4] it was 5 µg/mL; in experiment [2], 5 µg/mL.
As for `CCN(CC)CCSC1=Nc2ccccc2N=C(c2ccc(OC)cc2)C1` [Compound 69], in experiment [2], the MIC worked out at 80 µg/mL (≈ 210 µM).
Regarding `CCN(CC)CCSC1=Nc2ccccc2N=C(c2ccc(Oc3ccccc3)cc2)C1` [Compound 27, 2,beta,N-diethylaminoethylthio-4,p-phenoxyphenyl-3H-1,5-benzodiazepine.HCl], the values for the MIC (in the experiment on Escherichia coli 100; in experiment [1]) were 80 µg/mL and 10 µg/mL, respectively.
Take `C[N+]1(C)CCN(CCCSC2=Nc3ccccc3N=C(c3ccccc3)C2)CC1` [Compound 9, 2,gamma,N'-methyl-N-piperazine-n-propylthio-4-phenyl-3H-1,5-benzodiazepine monoiodomethylate]: the results for the MIC in experiment [1], in experiment [4] and in experiment [2] were 160 µg/mL, 160 µg/mL and 80 µg/mL, respectively.
Consider `CC[N+](C)(CC)CCSC1=Nc2ccccc2N=C(c2ccccc2Cl)C1` [Compound 24, 2,β,N-diethylaminoethylthio-4,o-chlorophenyl-3H-1,5-benzodiazepine iodomethylate], for which the MIC in experiment [4] was 80 µg/mL.
Regarding `C[N+]1(CCCSC2=Nc3ccccc3N=C(c3ccc(Cl)cc3)C2)CCCC1` [Compound 14, 2,gamma,N-pyrrolidinopropylthio-4,p-chlorophenyl-3H-1.5-benzodiazepine iodomethylate], the MIC in the experiment on Escherichia coli 100 is 40 µg/mL; in experiment [1], 40 µg/mL; in experiment [4], 20 µg/mL; in experiment [2], 40 µg/mL.
Turning to `CCN(CC)CCCSC1=Nc2ccccc2N=C(c2ccc(Cl)cc2)C1` [Compound 19, 2,gamma,N-diethylaminopropylthio-4,p-chlorophenyl-3H-1,5-benzodiazepine^. HCl], the MIC was found to be 80 µg/mL in the experiment on Escherichia coli 100, 40 µg/mL in experiment [1], 40 µg/mL in experiment [4] and 40 µg/mL in experiment [2].
Regarding `CCCSc1ccc(C2=Nc3ccccc3N=C(SCC[N+](C)(CC)CC)C2)cc1` [Compound 78], the MIC in the experiment on Escherichia coli 100 was 10 µg/mL; in experiment [1] it was 1.25 µg/mL; in experiment [4], 1.25 µg/mL; in experiment [2] it was 1.25 µg/mL.
Turning to `CCCCSc1ccc(C2=Nc3ccccc3N=C(SCC[N+](C)(CC)CC)C2)cc1` [Compound 82], the MIC in the experiment with Escherichia coli 100 is 10 µg/mL; in experiment [1], 2.5 µg/mL; in experiment [4], 2.5 µg/mL; in experiment [2] it was 2.5 µg/mL.
Turning to `CCN(CC)CCSC1=Nc2ccccc2N=C(c2ccc(Cl)cc2)C1` [Compound 17, 2,beta,N-diethylaminoethylthio-4,p-chlorophenyl-3H-1,5-benzodiazepine^.HCl], the MIC was found to be 20 µg/mL in experiment [1], 40 µg/mL in experiment [4] and 20 µg/mL in experiment [2].
Consider `C[N+]1(CCSC2=Nc3ccccc3N=C(c3ccc(Cl)cc3)C2)CCCC1` [Compound 16, 2,β,N-pyrrolidinoethylthio-4,p-chlorophenyl-3H-1,5-benzodiazepine iodomethylate], for which the MIC in the experiment with Escherichia coli 100 stood at 40 µg/mL; in experiment [1], 40 µg/mL; in experiment [4] it was 20 µg/mL; in experiment [2], 40 µg/mL.
`CCCSc1ccc(C2=Nc3ccccc3N=C(SCCN(CC)CC)C2)cc1` [Compound 77]: the results for the MIC in experiment [1], in experiment [4] and in experiment [2] were 5 µg/mL (≈ 11.7 µM), 10 µg/mL (≈ 23.5 µM) and 5 µg/mL (≈ 11.7 µM), respectively.
With `CCN(CC)CCSC1=Nc2ccccc2N=C(c2ccc(Sc3ccccc3)cc2)C1` [Compound 29, 2,beta-N-diethylaminoethylthio-4,p-phenylthiophenyl-3H-1,5-benzodiazepine.HOl], in the experiment on Escherichia coli 100, the MIC was determined as 80 µg/mL (≈ 174 µM).
On to `CN(C)CCSC1=Nc2ccccc2N=C(c2ccc(Sc3ccccc3)cc2)C1` [Compound 45, 2,beta,N-dimethylaminoethylthio-4,p-phenylthiophenyl-3H-1,5-benzodiazepine citrate], for which the MIC in experiment [1] was determined as 20 µg/mL.
As for `Clc1ccc(C2=Nc3ccccc3N=C(SCCCN3CCCC3)C2)cc1` [Compound 13, 2,gamma,N-pyrrolidinopropylthio-4,p-chlorophenyl-3H-1,5-benzodiazepine^. HCl], the MIC with Escherichia coli 100 was determined as 80 µg/mL; in experiment [1], 40 µg/mL; in experiment [4] it was 40 µg/mL; in experiment [2], 40 µg/mL.
As to `Clc1ccc(C2=Nc3ccccc3N=C(SCCN3CCCC3)C2)cc1` [Compound 15, 2,beta,N-pyrrolidinoethylthio-4,p-chlorophenyl-3H-1,5-benzodiazepine], the MIC in the experiment with Escherichia coli 100 came to 80 µg/mL (≈ 208 µM); in experiment [1], 20 µg/mL (≈ 52.1 µM); in experiment [4] it was 40 µg/mL (≈ 104 µM); in experiment [2], 40 µg/mL (≈ 104 µM).
For `CC[N+](C)(CC)CCSC1=Nc2ccccc2N=C(c2cccc(Cl)c2)C1` [Compound 22, 2,beta,N-diethylaminoethylthio-4,m-chlorophenyl-3H-1,5-benzodiazepine iodomethylate], the MIC in the experiment with Escherichia coli 100 stood at 40 µg/mL; in experiment [1], 80 µg/mL; in experiment [4] it was 20 µg/mL; in experiment [2] it was 40 µg/mL.
In the case of `C[N+]1(C)CC[N+](C)(CCSC2=Nc3ccccc3N=C(c3ccc(Sc4ccccc4)cc3)C2)CC1` [Compound 36, 2,beta,N(N'-methyl)piperazinoethylthio-4-p-phenylthiophenyl-3H-1,5-benzodiazepine bis-iodomethylate], the MIC in the experiment with Escherichia coli 100 turned out to be 160 µg/mL; in experiment [1], 80 µg/mL.
Regarding `c1ccc(C2=Nc3ccccc3N=C(SCCN3CCCC3)C2)cc1` [Compound 57], the MIC in experiment [1] turned out to be 160 µg/mL (≈ 458 µM); in experiment [4] it was 80 µg/mL (≈ 229 µM); in experiment [2] it was 80 µg/mL (≈ 229 µM).
With `CCN(CC)CCSC1=Nc2ccccc2N=C(c2ccccc2)C1` [Compound 53], the MIC (with Escherichia coli 100; in experiment [1]; in experiment [4]) was 80 µg/mL (≈ 228 µM) in each case.
`C[N+]1(CCSC2=Nc3ccccc3N=C(c3ccccc3)C2)CCCC1` [Compound 58]: in experiment [3], the “APR8: difference between logarithms” value came out at 1.
On to `CC[N+](C)(CC)CCSC1=Nc2ccccc2N=C(c2ccc(Oc3ccccc3)cc2)C1` [Compound 28, 2,beta,N-diethylaminoethylthio-4,p-phenoxyphenyl-3H-1,5-benzodiazepine iodomethylate], for which the “APR8: difference between logarithms” value in experiment [3] amounted to 1.
On to `CC[N+](C)(CC)CCCSC1=Nc2ccccc2N=C(c2ccc(Cl)cc2)C1` [Compound 20, 2,gamma,N-diethylaminopropylthio-4,p-chlorophenyl-3H-1,5-benzodiazepine iodomethylate], for which the MIC was found to be 80 µg/mL with Escherichia coli 100, 80 µg/mL in experiment [1], 20 µg/mL in experiment [4] and 40 µg/mL in experiment [2].
For the molecule `CC[N+](C)(CC)CCSC1=Nc2ccccc2N=C(c2ccc(Br)cc2)C1` [Compound 72], the MIC in the experiment with Escherichia coli 100 was determined as 20 µg/mL; in experiment [1], 20 µg/mL; in experiment [4], 10 µg/mL; in experiment [2], 20 µg/mL.
For the molecule `c1ccc(Sc2ccc(C3=Nc4ccccc4N=C(SCCCN4CCCC4)C3)cc2)cc1` [Compound 37, 2,gamma,pyrrolidinopropylthio-4,p-phenylthiophenyl-3H-1,5-benzodiazepine.HC], the MIC in experiment [1], in experiment [4] and in experiment [2] was 5 µg/mL (≈ 10.6 µM) in each case.
`CC[N+](C)(CC)CCSC1=Nc2ccccc2N=C(c2ccc(SC)cc2)C1` [Compound 74]: the MIC with Escherichia coli 100 is 40 µg/mL; in experiment [1], 10 µg/mL; in experiment [4], 20 µg/mL; in experiment [2], 10 µg/mL.
With `CCSc1ccc(C2=Nc3ccccc3N=C(SCC[N+](C)(CC)CC)C2)cc1` [Compound 76], the MIC turned out to be 20 µg/mL with Escherichia coli 100, 10 µg/mL in experiment [1], 10 µg/mL in experiment [4] and 10 µg/mL in experiment [2].
On to `CCN(CC)CCSC1=Nc2ccccc2N=C(c2ccc(Br)cc2)C1` [Compound 71], for which the MIC came to 80 µg/mL (≈ 186 µM) with Escherichia coli 100, 10 µg/mL (≈ 23.2 µM) in experiment [1], 20 µg/mL (≈ 46.5 µM) in experiment [4] and 10 µg/mL (≈ 23.2 µM) in experiment [2].
As to `CC[N+](C)(CC)CCSC1=Nc2ccccc2N=C(c2ccc(Cl)cc2)C1` [Compound 18, 2,beta,N-diethylaminoethylthio-4,p-chlorophenyl-3H-1,5-benzodiazepine iodomethylate], the MIC is 20 µg/mL with Escherichia coli 100, 20 µg/mL in experiment [1] and 40 µg/mL in experiment [4].
Consider `C[N+](C)(C)CCCSC1=Nc2ccccc2N=C(c2ccccc2)C1` [Compound 12, 2,gamma,N-dimethylaminopropylthio-4-phenyl-3H-1,5-benzo-diazepine iodomethylate], for which the MIC in the experiment on Escherichia coli 100 turned out to be 80 µg/mL; in experiment [1], 160 µg/mL; in experiment [2] it was 80 µg/mL.
Take `C[N+]1(CCSC2=Nc3ccccc3N=C(c3ccccc3)C2)CCOCC1` [Compound 62]: the “APR8: difference between logarithms” value in experiment [3] worked out at 1.
